From patent US9302998B2, “Aryl triazole compounds with antitumoural activity” (SIGMA-TAU RESEARCH SWITZERLAND S.A., priority 2010, dated 2016)

Columns and labels:
[1] = biological target: T1, Hsp90 (Homo sapiens, UniProt P07900); assay: Fluorescence Polarization (FP) binding, GM-BODIPY displacement from Hsp90; details: GM-BODIPY tracer, 4° C. for 4 hours
T1 construct: purchased Stressgen SPP-776
Method: GM-BODIPY (PerkinElmer, CUSN60342000MG) was previously dissolved in DMSO to obtain 10 mM stock solutions and kept at −20° C. until use.
Hsp90 (Stressgen, SPP-776), was previously dissolved in assay buffer (HFB) to form 2.2 μM stock solutions and kept at −80° C. until use.
The compounds were previously dissolved in DMSO to obtain stock solutions and kept at −20° C. The day of experiment, the compounds were prepared by serial dilutions in assay buffer (HFB) containing 20 mM HEPES (K) pH 7.3, 50 mM KCl, 5 mM MgCl2, 20 mM Na2MoO4 and 0.01% NP40. Before each use, 0.1 mg/ml Bovine Gamma globulin and 2 mM DTT were freshly added.
Fluorescence Polarization (FP) was performed in Opti-Plate™-96F well plates (Perkin Elmer, Zaventem, Belgium) using a plate reader (Wallac Envision 2101 multilabel reader, Perkin Elmer, Zaventem, Belgium). To evaluate the binding affinity of the molecules, 50 μl of the GM-BODIPY solution (100 nM) were added to 125 nM of Hsp90 in the presence of 5 μl of the test compounds at increasing concentrations. The plate was mixed on a shaker at 4° C. for 4 hours, and the FP values in mP (millipolarization units) were recorded. The IC50 values were calculated as the inhibitor concentration where 50% of the tracer is displaced; each data point is the result of the average of triplicate wells, and was determined from a plot using nonlinear least-squares analysis. Curve fitting was performed using
Prism GraphPad software program (GraphPad software, Inc., San Diego, Calif.).

[2] = system: NCI-H460 non-small cell lung carcinoma; assay: Cytotoxicity assay, sulphorodamine B test, NCI-H460; assay type: cell-based; details: Homo sapiens, NCI-H460; 72 h, sulphorodamine B
Method: (§1) The antiproliferative activity of novel Hsp90 inhibitors was also evaluated on various cancerous cell lines by means of the sulphorodamine B test (i.e., NCI-H460 non-small cell lung carcinoma, A431 epidermoid, A2780 ovarian, MDA-MB436 triple-negative breast, U87MG glioblastoma, A498 renal, HCT116 colon, MeWo melanoma, MiaPaCa2 pancreas, HeLa cervix uteri, NB4 promyelocytic leukemia). NCI-H460, A431, MDA-MB436, A2780, A498, HeLa, NB4 tumour cells were grown in RPMI 1640 containing 10% fetal bovine serum (i.e., FBS from GIBCO), L-glutamine, and 50 μg/ml gentamycin sulfate.
(§2) All cell lines were maintained in a 37° C. incubator with saturated humidity and an atmosphere containing 95% air and 5% CO2, and were sub-cultured every 2-3 days. Tumour cells were seeded in 96-well tissue culture plates at approximately 10% confluence and were allowed to attach and recover for 24 h.
(§3) Varying concentrations of the drugs were then added to each well to calculate their IC50 value (the concentration which inhibits the 50% of cell survival). The plates were incubated at 37° C. for 72 h. At the end of the treatment, the plates were washed by remotion of the supernatant and addition of PBS 3 times. 200 μl PBS and 50 μl of cold 80% trichloroacetic acid (TCA) were added. The plates were incubated on ice for at least 1 h. TCA was removed, the plates were washed 3 times by immersion in distilled-water and dried on paper and at 40° C. for […]. Then 200 μl of 0.4% sulphorodamine B in 1% acetic acid were added. The plates were incubated at room temperature for 30 min. Sulphorodamine B was removed, the plates were washed by immersion in 1% acetic acid for 3 times, then they were dried on paper and at 40° C. for 5 min. Then, 200 μl Tris 10 mM were added, the plates were kept under stirring for 20 min. The cell survival was determined as optical density by a Multiskan […] at 540 nm. The amount of cells killed was calculated as the percentage decrease in sulphorodamine B binding compared with control cultures.

[3] = system: A431 epidermoid; assay: Sulphorodamine B test at single concentration, A431; assay type: cell-based; details: Homo sapiens, A-431; 500 nM, 72 h
Method: as §1, §2, §3
(§4) The other cell lines were screened against one single concentration of the various inhibitors (i.e., 500 nM), all experiments being made in octuplicate, following the protocol described at example 35. Since NB4 cell line was grown in suspension, a further step of centrifugation (i.e., 1600 g for 10 min) was added after the 72 hour incubation period.

[4] = system: A2780 ovarian; assay: Sulphorodamine B test at single concentration, A2780; assay type: cell-based; details: Homo sapiens, 500 nM, 72 h
Method: as §1, §2, §3, §4

[5] = system: MDA-MB436 triple-negative breast; assay: Sulphorodamine B test at single concentration, MDA-MB436; assay type: cell-based; details: Homo sapiens, MDA-MB-436; 500 nM, 72 h
Method: as §1, §2, §3, §4

[6] = system: U87MG glioblastoma; assay: Sulphorodamine B test at single concentration, U87MG; assay type: cell-based; details: Homo sapiens, U-87 MG; 500 nM, 72 h
Method: as §1
(§5) MeWo and U87-MG cells were cultured in Eagle's Minimum Essential Medium (i.e., EMEM) containing 10% FBS, L-glutamine, 1 mM sodium pyruvate, 0.1 mM non-essential amino acids, 1.5 g/l sodium bicarbonate, and 50 μg/ml gentamycin sulphate.
as §2, §3, §4

[7] = system: A498 renal; assay: Sulphorodamine B test at single concentration, A498; assay type: cell-based; details: Homo sapiens, 500 nM, 72 h
Method: as §1, §2, §3, §4

[8] = system: HCT116 colon; assay: Sulphorodamine B test at single concentration, HCT116; assay type: cell-based; details: Homo sapiens, HCT-116; 500 nM, 72 h
Method: as §1
HCT116 cells were cultured in McCoy's medium containing 10% FBS, L-glutamine, and 50 μg/ml gentamycin sulfate.
as §2, §3, §4

[9] = system: MeWo melanoma; assay: Sulphorodamine B test at single concentration, MeWo; assay type: cell-based; details: Homo sapiens, 500 nM, 72 h
Method: as §1, §5, §2, §3, §4

[10] = system: MiaPaCa2 pancreas; assay: Sulphorodamine B test at single concentration, MiaPaCa2; assay type: cell-based; details: Homo sapiens, MIA PaCa-2; 500 nM, 72 h
Method: as §1
MiaPaCa2 cells were cultured in DMEM medium containing 10% FBS, L-glutamine, and 50 μg/ml gentamycin sulfate.
as §2, §3, §4

[11] = system: HeLa cervix uteri; assay: Sulphorodamine B test at single concentration, HeLa; assay type: cell-based; details: Homo sapiens, 500 nM, 72 h
Method: as §1, §2, §3, §4

[12] = system: NB4 promyelocytic leukemia; assay: Sulphorodamine B test at single concentration, NB4; assay type: cell-based; details: 500 nM, 72 h, suspension cells
Method: as §1, §2, §3, §4

With `CCNC(=O)c1nnn(-c2cc(C(C)C)c(O)cc2O)c1-c1ccc(CN2CCCCC2)cc1` [Example 9, 1-(2,4-dihydroxy-5-isopropyl-phenyl)-5-(4-piperidin-1-ylmethyl-phenyl)-1H-[1,2,3]triazole-4-carboxylic acid ethylamide] the IC50 [1] was less than 50 nM, the IC50 [2] was less than 50 nM and the inhibition at 0.5 µM [3] was no less than 50%. For the same molecule, the inhibition at 0.5 µM [4] was no less than 50%, the inhibition at 0.5 µM [5] was no less than 50% and the inhibition at 0.5 µM [6] was no less than 50%. The inhibition at 0.5 µM [7] was no less than 50%, the inhibition at 0.5 µM [8] was no less than 50% and the inhibition at 0.5 µM [9] was no less than 50%. It also gave an inhibition at 0.5 µM [10] of no less than 50%, an inhibition at 0.5 µM [11] of no less than 50% and an inhibition at 0.5 µM [12] of no less than 50%.

`CCNC(=O)c1nnn(-c2cc(C(C)C)c(O)cc2O)c1-c1ccc(CN2CC[C@H](N(C)C)C2)cc1` [Example 20, 1-(2,4-dihydroxy-5-isopropyl-phenyl)-5-[4-((S)-3-dimethylamino-pyrrolidin-1-ylmethyl)-phenyl]-1H-[1,2,3]triazole-4-carboxylic acid ethylamide] gave an IC50 [1] of less than 50 nM, an IC50 [2] of less than 50 nM and an inhibition at 0.5 µM [3] of no less than 50%. For the same molecule, the inhibition at 0.5 µM [4] was no less than 50%, the inhibition at 0.5 µM [5] was no less than 50% and the inhibition at 0.5 µM [6] was no less than 50%. For the same molecule, the inhibition at 0.5 µM [7] was 30 to 50%, the inhibition at 0.5 µM [8] was no less than 50% and the inhibition at 0.5 µM [9] was no less than 50%. For the same molecule, the inhibition at 0.5 µM [10] was no less than 50%, the inhibition at 0.5 µM [11] was no less than 50% and the inhibition at 0.5 µM [12] was no less than 50%.

In the case of `CCNC(=O)c1nnn(-c2cc(C(C)C)c(O)cc2O)c1-c1ccc(CN2CCOCC2)cc1` [Example 5, 1-(2,4-dihydroxy-5-isopropyl-phenyl)-5-(4-morpholin-4-ylmethyl-phenyl)-1H-[1,2,3]triazole-4-carboxylic ethyl amide], the IC50 [1] is reported as less than 50 nM, the IC50 [2] is reported as less than 50 nM and the inhibition at 0.5 µM [3] is reported as no less than 50%. It also gave an inhibition at 0.5 µM [4] of no less than 50%, an inhibition at 0.5 µM [5] of no less than 50% and an inhibition at 0.5 µM [6] of no less than 50%. For the same molecule, the inhibition at 0.5 µM [7] was no less than 50%, the inhibition at 0.5 µM [8] was no less than 50% and the inhibition at 0.5 µM [9] was no less than 50%. The inhibition at 0.5 µM [10] was no less than 50%, the inhibition at 0.5 µM [11] was no less than 50% and the inhibition at 0.5 µM [12] was no less than 50%.

Molecule `CCNC(=O)c1nnn(-c2cc(C(C)C)c(O)cc2O)c1-c1ccc(CNCC2CCCCC2)cc1` [Example 15, 5-{4-[(cyclohexylmethyl-amino)-methyl]-phenyl}-1-(2,4-dihydroxy-5-isopropyl-phenyl)-1H-[1,2,3]triazole-4-carboxylic acid ethylamide] has an IC50 [1] of less than 50 nM, an IC50 [2] of less than 50 nM and an inhibition at 0.5 µM [3] of no less than 50%. It also gave an inhibition at 0.5 µM [4] of no less than 50%, an inhibition at 0.5 µM [5] of no less than 50% and an inhibition at 0.5 µM [6] of no less than 50%. The inhibition at 0.5 µM [7] was no less than 50%, the inhibition at 0.5 µM [8] was no less than 50% and the inhibition at 0.5 µM [9] was no less than 50%. The inhibition at 0.5 µM [10] was no less than 50%, the inhibition at 0.5 µM [11] was no less than 50% and the inhibition at 0.5 µM [12] was no less than 50%.

`CCNC(=O)c1nnn(-c2cc(C(C)C)c(O)cc2O)c1-c1ccc(CN2CCCCC2CCO)cc1` (stereo not drawn) [Example 8, 1-(2,4-dihydroxy-5-isopropyl-phenyl)-5-{4-[2-(2-hydroxy-ethyl)-piperidin-1-ylmethyl]-phenyl}-1H-[1,2,3]triazole-4-carboxylic acid ethylamide] gave an IC50 [1] of less than 50 nM, an IC50 [2] of 100 to 500 nM and an inhibition at 0.5 µM [3] of no less than 50%. It also gave an inhibition at 0.5 µM [4] of no less than 50%, an inhibition at 0.5 µM [5] of no less than 50% and an inhibition at 0.5 µM [6] of no less than 50%. It also gave an inhibition at 0.5 µM [7] of 30 to 50%, an inhibition at 0.5 µM [8] of no less than 50% and an inhibition at 0.5 µM [9] of no less than 50%. The inhibition at 0.5 µM [10] was no less than 50%, the inhibition at 0.5 µM [11] was no less than 50% and the inhibition at 0.5 µM [12] was no less than 50%.

`CCCCCCNC(=O)c1nnn(-c2cc(C(C)C)c(O)cc2O)c1-c1ccc(CN2CCOCC2)cc1` [Example 27, 1-(2,4-dihydroxy-5-isopropyl-phenyl)-5-(4-morpholin-4-ylmethyl-phenyl)-1H-[1,2,3]triazole-4-carboxylic acid hexylamide] gave an IC50 [1] of less than 50 nM, an IC50 [2] of less than 50 nM and an inhibition at 0.5 µM [3] of no less than 50%. It also gave an inhibition at 0.5 µM [4] of no less than 50%, an inhibition at 0.5 µM [5] of no less than 50% and an inhibition at 0.5 µM [6] of no less than 50%. It also gave an inhibition at 0.5 µM [7] of no less than 50%, an inhibition at 0.5 µM [8] of no less than 50% and an inhibition at 0.5 µM [9] of no less than 50%. For the same molecule, the inhibition at 0.5 µM [10] was no less than 50%, the inhibition at 0.5 µM [11] was no less than 50% and the inhibition at 0.5 µM [12] was no less than 50%.
